From US20010016560A1, “Herbicidal compositions” (priority 1998, published 2001)

Columns and labels:
ELEIN [1] = assay: Field test Brazil, pre-emergence, light sandy soil (Example 2); type: in vivo; settings: 95 days after treatment vs untreated plot, g/ha: Cpd A 150, Tebuthiuron 500, mix 500+150
Description: (§1) [0042] The following test was conducted in Brazil: Tebuthiuron (used as the commercial formulation “Combine™”, a suspension concentrate containing […] active ingredient) and 5-cyclopropyl-4-(2-methylsulfonyl-4-trifluoromethyl)benzoylisoxazole (isoxaflutole, hereafter referred to as Compound A), which was formulated as wettable granules, were sprayed alone and in tank mix combination (spray rate 300 l/ha) to a plot 5 meters by 3 meters pre-emergence of the weeds and ratoon sugarcane (varieties RB72 454 and […]). The soil was a heavy clay soil containing 1.8% organic matter, […] (pH 5.3) and had been sown on the same day as application with the weed species (the application was made to the ratoon cane about 90 days after cutting and before re-growth). Visual assessment was made 95 days after treatment in comparison with an untreated control plot. Two replicates were performed.
(§2) [0044] The following test was conducted in Brazil following the same procedure as described in Example 1 above but where the soil type was light sandy containing 1.8% organic matter, 82% sand and 13% clay (pH 5.3). Again, two replicates were performed.

AMASP [2] = assay: as above; type: in vivo; settings: 95 days after treatment vs untreated plot, g/ha: Cpd A 150, Tebuthiuron 500, mix 500+150
Description: as §1, §2

BRAPL [3] = assay: as above; type: in vivo; settings: 95 days after treatment vs untreated plot, g/ha: Cpd A 150, Tebuthiuron 500, mix 500+150
Description: as §1, §2

ECHCG [4] = assay: as above; type: in vivo; settings: 95 days after treatment vs untreated plot, g/ha: Cpd A 150, Tebuthiuron 500, mix 500+150
Description: as §1, §2

DIGHO [5] = assay: as above; type: in vivo; settings: 95 days after treatment vs untreated plot, g/ha: Cpd A 150, Tebuthiuron 500, mix 500+150
Description: as §1, §2

SIDRH = assay: as above; type: in vivo; settings: 95 days after treatment vs untreated plot, g/ha: Cpd A 150, Tebuthiuron 500, mix 500+150
Description: as §1, §2

SACOF RB72 454 [6] = assay: Field test Brazil, crop effect, light sandy soil (Example 2); type: in vivo, ratoon sugarcane
Description: as §1, §2

SACOF RB68 5089 [7] = assay: as above; type: in vivo, ratoon sugarcane
Description: as §1, §2

ELEIN [8] = assay: Field test Brazil, pre-emergence, heavy clay soil (Example 1); type: in vivo; settings: 95 days after treatment vs untreated plot, g/ha: Cpd A 150, Tebuthiuron 500, mix 500+150
Description: as §1

AMASP [9] = assay: as above; type: in vivo; settings: 95 days after treatment vs untreated plot, g/ha: Cpd A 150, Tebuthiuron 500, mix 500+150
Description: as §1

BRAPL [10] = assay: as above; type: in vivo; settings: 95 days after treatment vs untreated plot, g/ha: Cpd A 150, Tebuthiuron 500, mix 500+150
Description: as §1

ECHCG [11] = assay: as above; type: in vivo; settings: 95 days after treatment vs untreated plot, g/ha: Cpd A 150, Tebuthiuron 500, mix 500+150
Description: as §1

PANMA = assay: as above; type: in vivo; settings: 95 days after treatment vs untreated plot, g/ha: Cpd A 150, Tebuthiuron 500, mix 500+150
Description: as §1

DIGHO [12] = assay: as above; type: in vivo; settings: 95 days after treatment vs untreated plot, g/ha: Cpd A 150, Tebuthiuron 500, mix 500+150
Description: as §1

SACOF RB72 454 [13] = assay: Field test Brazil, crop effect, heavy clay soil (Example 1); type: in vivo, ratoon sugarcane
Description: as §1

SACOF RB68 5089 [14] = assay: as above; type: in vivo, ratoon sugarcane
Description: as §1

[15] = pre-emergence, 95 days after treatment vs untreated plot, light sandy soil, g/ha: Cpd A 150, Tebuthiuron 500, mix 500+150
[16] = pre-emergence, 95 days after treatment vs untreated plot, heavy clay soil, g/ha: Cpd A 150, Tebuthiuron 500, mix 500+150

Row | SMILES | Visual assessment ELEIN (ELEIN [1]) | Visual assessment AMASP (AMASP [2]) | Visual assessment BRAPL (BRAPL [3]) | Visual assessment ECHCG (ECHCG [4]) | Visual assessment DIGHO (DIGHO [5]) | Visual assessment SIDRH (SIDRH) | Visual assessment SACOF RB72 454 (crop) (SACOF RB72 454 [6]; in vivo) | Visual assessment SACOF RB68 5089 (crop) (SACOF RB68 5089 [7]; in vivo) | Visual assessment ELEIN (ELEIN [8]) | Visual assessment AMASP (AMASP [9]) | Visual assessment BRAPL (BRAPL [10]) | Visual assessment ECHCG (ECHCG [11]) | Visual assessment PANMA (PANMA) | Visual assessment DIGHO (DIGHO [12]) | Visual assessment SACOF RB72 454 (crop) (SACOF RB72 454 [13]; in vivo) | Visual assessment SACOF RB68 5089 (crop) (SACOF RB68 5089 [14]; in vivo) | Visual assessment SACOF RB72 454 (crop) (SACOF RB72 454 [6]; [15]) | Visual assessment SACOF RB68 5089 (crop) (SACOF RB68 5089 [7]; [15]) | Visual assessment SACOF RB72 454 (crop) (SACOF RB72 454 [13]; [16]) | Visual assessment SACOF RB68 5089 (crop) (SACOF RB68 5089 [14]; [16])
1 | CS(=O)(=O)c1cc(C(F)(F)F)ccc1C(=O)c1cnoc1C1CC1 [Cpd A, 5-cyclopropyl-4-(2-methylsulfonyl-4-trifluoromethyl)benzoylisoxazole] | 30 | 27.5 | 15 | 20 | 20 | 10 | 0 | 0 | 85 | 80 | 70 | 50 | 85 | 75 | 0 | 0 | – | – | – | –
2 | CNC(=O)N(C)c1nnc(C(C)(C)C)s1 [Tebuthiuron] | 20 | 70 | 20 | 15 | 20 | 60 | – | – | 20 | 75 | 10 | 10 | 5 | 10 | – | – | 0 | 0 | 0 | 0
